One experiment relates to iAMs. Briefly: Cardiomyocyte hypertrophy assay: CSA of iAMs after AngII, also with PD98059. Format: cell-based, rat. The method, then: iAMs were seeded at a density of 10^4 cells/well in differentiation medium in 24-well plates (Greiner Bio-One, 662160) and differentiated over 9 days (d0 = day of seeding). […] To determine CSA, cells were fixed with 4% paraformaldehyde (PFA, Thermo Fisher Scientific, 043368.9 M) for 30 min at 4 °C. Cells were washed thrice with PBS and permeabilized by incubation with 0.1% Triton X-100 (Merck, 10789704001) for 10 min at RT. iAMs were stained with Alexa Fluor 568 phalloidin (Thermo Fisher Scientific, A12380) in 1% BSA-PBS solution for 1 h at RT. After washing 3 times with PBS, DAPI (Merck, D9542) was added. Images were obtained by fluorescence microscopy (Celena S).
CSA was quantified using an automated algorithm, custom-made in Python[67]. The mode mD (maximum of the histogram) of DAPI intensities (excluding 0) was determined and binary segmentation of nuclei was created with threshold mD + SDD (with SDD the SD of DAPI intensities). Distinct objects with an area less than 500 pixels and nuclei where the average overlapping iAM signal was less than mdA + 0.5 SDA (with mdA and SDA the median and SD of the Alexa Fluor 568 intensity, respectively) were removed. […]

In another experiment the test system is Erbb4-null mice. Briefly: AngII-treated Erbb4-null mice, echocardiography. The class given is in vivo, mouse. Conditions: AngII/EF-1. An excerpt: Floxed Erbb4 mice (Erbb4^f/f; C57BL/6N; 129-Erbb4tm1Fej/Mmucd, MMRRC, #010439-UCD) were crossed with CAGGCre-ER^TM mice (Jackson Laboratory, 004682) containing the Tg(CAG-cre/Esr1*)5Amc transgene that expresses Cre recombinase under the control of a chicken beta actin promoter/enhancer coupled to the human cytomegalovirus immediate-early gene enhancer, resulting in expression of tamoxifen-inducible Cre-ERT in most cell types. To induce Cre recombinase-mediated deletion of Erbb4, eleven-week-old female and male iCAGGCre-ER^TM/Erbb4^f/f mice were intraperitoneally injected with tamoxifen (Merck, T5648; 10 mg/kg; in corn oil) daily for 5 consecutive days.
Echocardiography was performed using the Vevo F2-LAZRX (FUJIFILM VisualSonics) and UHF57x probe. Mice were anesthetized with 1.5% isoflurane (Alvira, BE-V512222). Parasternal long-axis B-mode images and M-mode images were obtained and analyzed using VevoLAB software (FUJIFILM VisualSonics, Version 5.7.1). For the AngII experiments, measurements were obtained through analysis of the short-axis M-mode. For the MI experiments, measurements were obtained through analysis of the parasternal long-axis B-mode, of which the area and end-volume of the left ventricular cavity in diastole and systole were determined by tracing the endocardial border. Acquisitions, measurements and analyses were performed blinded.
Supplementary Table 2. Echocardiographic parameters. Echocardiographic parameters obtained through the analysis of the M-mode short-axis views. (a) Male and (b) female wild-type mice treated […]
mice in EF-1 group). (c) Male wild-type mice treated with AngII and NA-1 (n=5 male mice in Ctrl and AngII/Veh group, n=4 male mice in AngII/NA -1 group). (d) Comparison between wild-type and Erbb4-null mice (n=10 male and female wild -type mice and n=6 male and female Erbb4-null mice). (e) Male […]
Echocardiographic parameters were measured weekly
(indicated by ‘T’). All data are presented as mean (value of individual mice) ± SD, two-tailed unpaired […]
1 groups. Source data are provided as a Source Data file. AngII, angiotensin II; ANOVA, analysis of variance; Ctrl, control; DOX, doxorubicin; EF, ejection fraction; ERBB4, erythroblastic leukemia viral oncogene homolog 4; FS, fractional shortening; IVSd, interventricular septum thickness in diastole; IVSs, interventricular septum thickness in systole; LVIDd, left ventricular internal diameter in diastole; LVIDs, left ventricular internal diameter in systole; LVPWd, left ventricular posterior wall thickness in diastole; LVPWs, left ventricular posterior wall thickness in systole; MI, myocardial infarction; NA, non-activating pharmacophore-containing compound; SD, standard variation; Veh, vehicle.

The mark [1] stands for this setting: Male and female Erbb4-null mice.
Setting [2] is: male and female Erbb4-null mice, mean ± SD.

Consider `O=C(NC1CC1)C(Sc1nc2ccccc2c(=O)n1C1CCCC1)c1ccccc1` (stereo not shown) [EF-1], for which, in the experiment with iAMs, the “anti-hypertrophic effect of EF-1 under ERK1/2 pathway inhibition (PD98059) (in words)” value is “blocked upon inhibition of the ERK1/2 pathway”. Also, the “effect on AngII-induced increase in CSA (in words)” value in the experiment on iAMs (EF-1 4–32 µM) was “dose-dependently attenuated”. In the experiment with Erbb4-null mice (setting [1]), the FS amounted to 5.8 ± 3.5%, the IVSd was 1.0 ± 0.3 mm, the IVSs is listed as 1.2 ± 0.5 mm and the LVIDd is given as 5.8 ± 0.3 mm. Further, in the experiment on Erbb4-null mice (setting [1]), the LVIDs was 5.5 ± 0.5 mm, the LVPWd is on record as 1.0 ± 0.4 mm and the LVPWs is on record as 1.1 ± 0.4 mm. In the experiment with Erbb4-null mice (setting [2]), this compound came in with an FS of 5.8 ± 3.5%, an IVSd of 1.0 ± 0.3 mm, an IVSs of 1.2 ± 0.5 mm and an LVIDd of 5.8 ± 0.3 mm. Besides, in the experiment on Erbb4-null mice (setting [2]), the LVIDs was determined as 5.5 ± 0.5 mm, the LVPWd is recorded as 1.0 ± 0.4 mm and the LVPWs is recorded as 1.1 ± 0.4 mm.

For the origin of these results see article PMC11724075, “Small-molecule-induced ERBB4 activation to treat heart failure” (Nature Communications, 2025).
